SMILES strings stand for the structures. Activity calls are given as the source filed them. The rule behind the calls is not given here.

The target in the assay is Sentrin-specific protease 8 (Homo sapiens) (UniProt Q96LD8). Put plainly: SENP8 deneddylase blockers, concentration series – biochemical, Nedd8 protein substrate, dose response (AID 624322). The note with it: recombinant SENP8, Nedd8 substrate cleavage inhibition.
Sequence of Sentrin-specific protease 8 (Homo sapiens) (Q96LD8 whole entry, looked up): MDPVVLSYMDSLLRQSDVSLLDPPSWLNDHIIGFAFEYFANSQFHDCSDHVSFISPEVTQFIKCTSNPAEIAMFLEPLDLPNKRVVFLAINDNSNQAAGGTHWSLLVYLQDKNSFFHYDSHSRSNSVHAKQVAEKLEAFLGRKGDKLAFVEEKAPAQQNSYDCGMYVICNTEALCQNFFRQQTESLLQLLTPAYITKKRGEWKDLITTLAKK
Regarding `O=[N+]([O-])c1cc(F)c2cccnc2c1O`, the IC50 – broadly, the concentration needed to halve the response being measured – is 11.8 µM.

Take `COc1ccc(-n2[nH]c(C)cc2=O)cc1`: the IC50 is > 100 µM (inactive).

On to `CC1=C(SCCC#N)S/C(=C2\SC(C)=C(SCCC#N)S2)S1`, for which the IC50 is 0.297 µM.

`Cc1ccc(S(=O)(=O)N[C@H](C(=O)N2CCC(C(=O)N[C@H](C(=O)O)c3ccccc3)CC2)C(C)C)cc1`: the IC50 was > 100 µM (inactive).

For the molecule `NC(=O)c1ccc(N=Cc2ccc([N+](=O)[O-])s2)cc1`, the IC50 was 2.48 µM.

As to `O=C(O)c1ccc(Cl)c(S(=O)(=O)NCc2ccco2)c1`, the IC50 was > 100 µM (inactive).

For the molecule `O=[N+]([O-])c1ccc(N2CCN(Cc3ccccc3)CC2)c2c1no[n+]2[O-]`, the IC50 is 17.4 µM.

With `COc1ccc(O)c(C(c2c(C)[nH][nH]c2=O)c2c(C)[nH][nH]c2=O)c1`, the IC50 was 7.17 µM.

`O=c1[nH]c2ccccc2s1`: the IC50 is > 100 µM (inactive).

On to `O=C(O)CCCCCCCCCCCc1ccccc1`, for which the IC50 is > 100 µM (inactive).

As for `O=C(CCc1ccccc1)c1c(O)cc(O)cc1O`, the IC50 was > 100 µM (inactive).

Consider `CCCn1nc([N+](=O)[O-])c(C(C#N)c2nc3ccccc3o2)c(Cl)c1=O` (stereo unspecified), for which the IC50 was > 100 µM (inactive).

Turning to `O=C(N/N=C/c1ccc([N+](=O)[O-])o1)c1ccccc1-n1cccc1`, the IC50 is > 100 µM (inactive).

In the case of `O=C(NC1C(=O)NNC1c1ccccc1)c1ccccc1` (stereo unspecified), the IC50 is > 100 µM (inactive).

Turning to `Cn1c(Cc2ccccc2)nnc1SCC(=O)c1cccs1`, the IC50 is > 100 µM (inactive).

On to `O=C(Nc1c(-c2ccccc2)[nH][nH]c1=O)c1cnccn1`, for which the IC50 is 42.6 µM.

The record behind these values is PubChem BioAssay AID624322 (Sanford-Burnham Center for Chemical Genomics, 2012).
